Values quoted from earlier work, collected in US7122567B2, “Heterocyclic amide derivatives having glycogen phosphorylase inhibitory activity” (AstraZeneca AB, priority 2002, dated 2006).

Key:
[1] = conscious dogs, following a glucagon challenge
[2] = db/db and ob/ob mice following treatment
[3] = tested on: hepatocytes

SMILES: CCN1C(C)=C(C(=O)OC(C)C)C(c2ccccc2Cl)C2=C1COC2=O (centres unmarked) [Bay R 3401]
- arterial plasma glucose [1]: reduced significantly
- hepatic glucose output [1]: reduced significantly

SMILES: CN(C)C(=O)[C@H](O)[C@H](Cc1ccccc1)NC(=O)c1cc2cc(Cl)ccc2[nH]1 [CP91149]
- plasma glucose concentration [2]: reduced, in a dose related manner
- glucagon stimulated glycogenolysis [3]: reduce
- glucose output [3]: reduce

SMILES: O=C(N[C@@H](Cc1ccc(F)cc1)C(=O)N1CCC(O)CC1)c1cc2cc(Cl)ccc2[nH]1 [CP320626]
- plasma glucose concentration [2]: reduced, in a dose related manner
- glucagon stimulated glycogenolysis [3]: reduce
- glucose output [3]: reduce
